Results published in US20210346359A1, “Use of CFTR Modulators For Treating Cerebrovascular Conditions” (Qanatpharma AG, priority 2018, published 2021).
“Also recorded” adds a separate entry of the source. Read-outs that look alike come from different tables or passages of the source.

What was measured:
[1] = test system: olfactory cerebral artery; settings: recent observations (6); cited from earlier work
[2] = test system: cremaster skeletal muscle resistance arteries; assay: Cremaster skeletal muscle resistance artery myogenic tone and phenylephrine response with CFTR inhibition in vitro; settings: wild-type mouse arteries; in vitro 100 nmol/L for 30 minutes
Description: Isolation and functional assessment of resistance arteries: Mouse olfactory (a first branch of the anterior cerebral artery) and PCAs were carefully dissected, cannulated onto micropipettes, stretched to their in vivo lengths and pressurized to 45 mmHg, as previously described (3,6); mouse skeletal muscle resistance arteries were dissected from the cremaster muscle, cannulated and pressurized to 60 mmHg. All functional experiments were conducted in 3-morpholinopropanesulfonic acid (MOPS) buffered saline at 37° C. with no perfusion. […]
Myogenic responses were elicited by step-wise 20 mmHg increases in transmural pressure from 20 mmHg to 80 mmHg (olfactory arteries) or 100 mmHg (posterior cerebral arteries and cremaster skeletal muscle resistance arteries). At each pressure step, vessel diameter (diaactive) was measured once a steady state was reached (5 min). Vessels requiring treatment (e.g., CFTR(inh)-172) were incubated with the reagent in MOPS for 30 min and myogenic responses were then assessed in the presence of that reagent. Following completion of all diaactive measurements, MOPS buffer was replaced with a Ca^2+-free version and maximal passive diameter (diamax) was recorded at each pressure step. […]

[3] = test system: olfactory cerebral arteries; assay: Phenylephrine responses of isolated olfactory cerebral arteries; type: in vivo, mouse; settings: Mus musculus, olfactory cerebral arteries, log scale, read-out: log EC50 of phenylephrine response (converted)
Description: (§1) Isolation and functional assessment of resistance arteries: Mouse olfactory (a first branch of the anterior cerebral artery) and PCAs were carefully dissected, cannulated onto micropipettes, stretched to their in vivo lengths and pressurized to 45 mmHg, as previously described (3,6); mouse skeletal muscle resistance arteries were dissected from the cremaster muscle, cannulated and pressurized to 60 mmHg. All functional experiments were conducted in 3-morpholinopropanesulfonic acid (MOPS) buffered saline at 37° C. with no perfusion. Vasomotor responses to phenylephrine (5 μmol/L for posterior cerebral arteries, 10 μmol/L for cremaster skeletal muscle arteries) provided an assessment of vessel viability at the beginning and end of each experiment. Arteries failing to show ≥25% constriction to phenylephrine were excluded.
(§2) Myogenic tone was calculated as the percent constriction in relation to the maximal diameter at each respective transmural pressure: tone (% of diamax)=[(diamax−diaactive)/diamax]×100, where diaactive is the vessel diameter in MOPS containing Ca^2+ and diamax is the diameter in Ca^2+-free MOPS. Analyses of vasomotor responses to phenylephrine used the same calculation, only in this case, diaactive represents the vessel diameter at steady state following application of the given agent and diamax represents the maximal diameter measured under Ca^2+-free conditions.

[4] = test system: posterior cerebral arteries; assay: Phenylephrine responses of isolated posterior cerebral arteries; type: in vivo, mouse; settings: Mus musculus, posterior cerebral arteries, log scale, read-out: log EC50 of phenylephrine response (converted)
Description: as §1, §2

TNF = target: T1, TNF (Mus musculus, UniProt P06804); settings: HF and SAH models, cited from earlier work
T1 sequence (P06804 1-235): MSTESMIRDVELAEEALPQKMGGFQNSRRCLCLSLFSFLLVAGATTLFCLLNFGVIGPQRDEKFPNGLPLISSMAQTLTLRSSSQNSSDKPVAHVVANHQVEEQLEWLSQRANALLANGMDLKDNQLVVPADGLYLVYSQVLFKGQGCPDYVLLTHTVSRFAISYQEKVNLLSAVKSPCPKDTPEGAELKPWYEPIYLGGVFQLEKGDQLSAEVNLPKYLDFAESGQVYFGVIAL

O=C(O)c1ccc(/C=C2\SC(=S)N(c3cccc(C(F)(F)F)c3)C2=O)cc1 [CFTR(inh)-172]
olfactory cerebral artery myogenic tone [1]: augments
cremaster skeletal muscle resistance artery myogenic tone [2]: does not affect; also recorded: not altered
phenylephrine dose-response relationship in cremaster arteries [2]: not altered

CNC[C@H](O)c1cccc(O)c1 [phenylephrine]
EC50 ([3]; SAH untreated (C18 study)): 977 nM
EC50 ([3]; SAH untreated (lumacaftor study)): 1170 nM
EC50 ([3]; Sham (C18 SAH study)): 3020 nM
EC50 ([3]; Sham (lumacaftor SAH study)): 1620 nM
EC50 ([4]; CFTRΔF508 mice): 1000 nM
EC50 ([4]; HF mice untreated): 562 nM
EC50 ([4]; Sham (HF study)): 501 nM
EC50 ([4]; WT littermates): 1480 nM

etanercept
HF- and SAH-mediated enhancement of cerebrovascular vasoconstriction (augmented myogenic tone) (TNF; earlier work (3,4,6)): eliminates
cerebral perfusion (TNF; earlier work (3,4,6)): normalizes
neuronal injury (TNF; earlier work (5,6)): reduces
